For series [1], the target named is T1, EGFR-TK (Homo sapiens, UniProt P00533).
T1 construct: The supernatant, which contained the EGFR, was collected and frozen; endogenous in cells; host or cells: A431 cells (A1: Triton X-100 lysate captured on mAb108; A2: intact cells)
Kind of series: EGFR-TK autophosphorylation inhibition in intact A431 cells (irreversibility assay, Western blot). The format is cell-based. The settings on record: for nature of binding to the receptor (irreversibility): intact A431 cells, inhibition 8 hours post incubation. As for the experimental part: A431 cells (5×10^5) were seeded in 6-well plates and grown for 24 hours to about 90% confluence in DMEM (high glucose) containing 10% fetal calf serum (FCS) and antibiotics at 37° C. The cells were then exposed to serum-free medium, at 37° C., for 18 hours.
[…] The medium was replaced thereafter with an inhibitor/FCS-free medium and the cells were divided into two groups: cells of the first group were immediately stimulated with EGF (20 ng/ml) for 5 minutes and then washed with PBS, while cells of the second group were incubated for additional 8 hours, at 37° C. During the 8 hours period, the medium was changed three times (after 2, 4 and 8 hours). After the post-incubation period, the cells of the second group were stimulated with EGF (20 ng/ml) for 5 minutes and then washed with PBS.
Identical protein amounts from each lysate sample were loaded onto polyacrylamide gel (6% or 10%), separated by electrophoresis (Hoefer Pharmacia Biotech Inc., San Francisco, USA) and transferred to nitrocellulose membrane (power supply: EPS 500/400, Amersham Pharmacia Biotech; nitrocellulose extra blotting membranes: Sartorius AG, Goettingen, Germany). A standard high molecular weight solution was loaded as a reference. For visualization of molecular weight bands, the membrane was immersed in Ponceau reagent (0.05% Ponceau, 5% acetic acid) for a few minutes, and then washed twice with TTN (10 mM Tris pH 7.4, 0.2% TWEEN 20, 170 mM NaCl) and once with water. The membrane was blocked overnight in TTN containing 5% milk (1% fat) (blocking TTN) and incubated for 90 minutes with PY20 antiphosphotyrosine antibody (Santa Cruz Biotechnology Inc., Santa Cruz, USA) diluted 1:2,000 in blocking TTN. The membrane was then washed with TTN (3×5 minutes), incubated for 90 minutes with a horseradish peroxidase-conjugated secondary antibody (Goat anti-mouse IgG H+L, Jackson ImResearch Laboratories, Inc., diluted 1:10,000 in blocking TTN), and finally washed again with TTN (3×5 minutes).
After the incubation, the media was replaced with inhibitor/FCS-free media and the inhibition effect was measured either immediately thereafter or after 8 hours post incubation.
Background: In western blotting, separated proteins are transferred to a membrane and probed.

The target in series [2] is T1, EGFR-TK. The experiment in a line: EGFR-TK autophosphorylation inhibition in A431 cell lysate (ELISA). The format is biochemical. The settings on record: read-out: A431 lysate IC50 app. As to the method: All the following incubations were performed at room temperature and with constant shaking. […] The final volume for each well was 150 μl.
In this step the temperature was kept at 26° C. and the plate was under constant shaking. The incubation with ATP/MnCl2 was for 5 minutes.
Afterward, polyclonal anti-phosphotyrosine serum (Sugen, Inc.) was added (dilution of antibody in TBST containing 5% milk). The incubation was for 45 minutes.
In general terms: In an ELISA, binding on a coated surface is turned into a signal by an enzyme label.

The nature of series [3]: Challenge reaction with reduced glutathione (HPLC conversion to conjugates). Type of series: physicochemical. As to the method: Standard solutions were prepared by dissolving compound 5, Compound 6 and {4-[(3,4-dichloro-6-fluorophenyl)amino]quinazol ine-6-yl}acrylamide (0.0146 mmol) in 1.75 ml of THF: MeOH (1:2) and glutathione (18 mg, 0.0586 mmol) in 0.5 ml of water. A 300 μL aliquot of the quinazoline standard solution (2.5 μmol) was diluted with 689 μL of THF:MeOH:H2O (1:2:1), after which 11 μL (1.25 μmol) of glutathione solution and 5.22 μL (30 μmol) of N,N′-diisopropylethylamine were added. Conversions of the quinazolines and formation of conjugates at different time points were measured by HPLC using RP (3.9×300 mm) column (mobile phase of acetonirile and acetate buffer 0.1 M (2:3) at a flow rate of 1 ml/min was used herein). The glutathione conjugates were further detected by MS.
As discussed hereinabove, EGFR blockade by irreversible inhibitors is due to the nucleophilic attack of the sulfhydryl group of Cys-773 at the receptor's ATP binding pocket on the reactive chemical group of the EGFR targeted inhibitor. In order to evaluate the chemical reactivity of the novel irreversibly EGFR inhibitors decribed herein, the degree of reactivity of the inhibitors towards the sulfhydryl group of reduced glutathione (GSH) as a nucleophile was tested. Thus, Compound 5, Compound 6 and {4-[(3,4-dichloro-6-fluorophenyl)amino]quinazoline-6-yl}acrylamide were dissolved in THF: MeOH: H2O (1:2:1), and were reacted at room temperature with half an equivalent of reduced glutathione in the presence of 12 equivalents of N,N-diisopropylethylamine. Identical aliquots of the reaction mixtures were taken at various time points and injected into reversed-phase HPLC in order to determine the conversion-rate of the various compounds into glutathione-conjugates. The characteristics of the products were determined using MS.
A study of the reaction rate as a function of the temperature was also performed. Thus, the reaction ws performed at various temperatures ranging from 0° C. and 60° C. The following activation parameters were generated: For {4-[(3,4-dichloro-6-fluorophenyl)amino]quinazoline-6-yl}acrylamide: Ea=5.24 kCalmol^−1, ΔH^#25° C.=4.64 kCalmol^−1 and ΔS^#25° C.=−61.24 Calmol^−1K^−1. For compound 5: Ea=11.4 kCalmol^−1, ΔH^#25° C.=10.80 kCalmol^−1 and ΔS^#25° C.=−41.29 Calmol^−1K^−1.
The reaction rate was calculated using the following rate equation: [formula] kobs=Ae^−Ea/RT

The target in a further series is T2, EGFR (Homo sapiens, UniProt P00533).
T2 construct: expressed in transfected cells; host or cells: NIH3T3 (DHER14 cells)
The experiment in a line: Selective-inhibition assay in DHER14 cells (receptor phosphotyrosine, Western blot). The format is cell-based. The settings on record: DHER14 cells expressing EGFR, 1 hour incubation, EGF stimulation. As to the method: (§1) NIH3T3 cells transformed with either the EGFR (DHER14 cells), with the HER1-HER2 chimera (CSH12 cells) or with the PDGFR (NIH/PDGFR cells), decribed by Lee et al.; 1989, Honegger et al., 1988; and Shawver et al. 1997, and A431 human epidermoid vulval carcinoma cells were grown in Dulbecco's modified Eagle's medium (DMEM) (Biological industries, Kibbuts Beit Haemek, Israel) supplemented with 10% fetal calf serum and antibiotics (penicillin […], streptomycin 100 mg/liter) at 37° C. in 5% CO2.
(§2) Selective-inhibition assay: CSH12, DHER14 and […] cells, expressing either the HER1-HER2 chimera, EGFR or PDGFR, respectively, were used for the determination of inhibitory selectivity. Cells (7.5×10^4) were grown in 6-well plates (35 mm diameter, Nalge Nunc) for 24 hours and then incubated in 0.25% FCS-containing medium for an additional 24 hours to about 90% confluence. Duplicate sets of cells were treated with the tested compounds at varying concentrations for 1 hour. The final concentration of the vehicle in the medium was 0.05% DMSO, 0.1% EtOH. After removal of the inhibitor from the medium, PBS wash (×2) and addition of 0.25% serum-containing medium to the wells, the cells were stimulated with either 20 ng/mL human EGF for 5 minutes (CSH12 and DHER14 cells) or 50 ng/ml human PDGFββ for 10 minutes ([…] cells) at 37° C. […]

In another series the target is PDGFR (Homo sapiens, UniProt P09619). Kind of series: Selective-inhibition assay in […] cells (receptor phosphotyrosine, Western blot). Type of series: cell-based. The note with it: […] cells expressing PDGFR, 1 hour incubation, PDGFββ stimulation. As to the method:
as §1, §2

The nature of series [4]: Challenge reaction with reduced glutathione (HPLC conversion to conjugates). Type of series: physicochemical. The settings on record: even at temperatures exceeding 100° C.
Where [5] appears, read: Intact A431 cells IC50 range (1 hr post incubation with inhibitor), 1 hour incubation with inhibitor, medium replaced, EGF stimulation immediately.
The mark [6] stands for this setting: Intact A431 cells IC50 range (8 hr post incubation with inhibitor), 1 hour incubation, then 8 hours in inhibitor-free medium before EGF stimulation.

“Also recorded” adds a separate entry of the source.

A word on the IC50: it is the concentration needed to halve the response being measured. By melting point is commonly meant the temperature of the solid-liquid transition.

T1 sequence (P00533 25-1210): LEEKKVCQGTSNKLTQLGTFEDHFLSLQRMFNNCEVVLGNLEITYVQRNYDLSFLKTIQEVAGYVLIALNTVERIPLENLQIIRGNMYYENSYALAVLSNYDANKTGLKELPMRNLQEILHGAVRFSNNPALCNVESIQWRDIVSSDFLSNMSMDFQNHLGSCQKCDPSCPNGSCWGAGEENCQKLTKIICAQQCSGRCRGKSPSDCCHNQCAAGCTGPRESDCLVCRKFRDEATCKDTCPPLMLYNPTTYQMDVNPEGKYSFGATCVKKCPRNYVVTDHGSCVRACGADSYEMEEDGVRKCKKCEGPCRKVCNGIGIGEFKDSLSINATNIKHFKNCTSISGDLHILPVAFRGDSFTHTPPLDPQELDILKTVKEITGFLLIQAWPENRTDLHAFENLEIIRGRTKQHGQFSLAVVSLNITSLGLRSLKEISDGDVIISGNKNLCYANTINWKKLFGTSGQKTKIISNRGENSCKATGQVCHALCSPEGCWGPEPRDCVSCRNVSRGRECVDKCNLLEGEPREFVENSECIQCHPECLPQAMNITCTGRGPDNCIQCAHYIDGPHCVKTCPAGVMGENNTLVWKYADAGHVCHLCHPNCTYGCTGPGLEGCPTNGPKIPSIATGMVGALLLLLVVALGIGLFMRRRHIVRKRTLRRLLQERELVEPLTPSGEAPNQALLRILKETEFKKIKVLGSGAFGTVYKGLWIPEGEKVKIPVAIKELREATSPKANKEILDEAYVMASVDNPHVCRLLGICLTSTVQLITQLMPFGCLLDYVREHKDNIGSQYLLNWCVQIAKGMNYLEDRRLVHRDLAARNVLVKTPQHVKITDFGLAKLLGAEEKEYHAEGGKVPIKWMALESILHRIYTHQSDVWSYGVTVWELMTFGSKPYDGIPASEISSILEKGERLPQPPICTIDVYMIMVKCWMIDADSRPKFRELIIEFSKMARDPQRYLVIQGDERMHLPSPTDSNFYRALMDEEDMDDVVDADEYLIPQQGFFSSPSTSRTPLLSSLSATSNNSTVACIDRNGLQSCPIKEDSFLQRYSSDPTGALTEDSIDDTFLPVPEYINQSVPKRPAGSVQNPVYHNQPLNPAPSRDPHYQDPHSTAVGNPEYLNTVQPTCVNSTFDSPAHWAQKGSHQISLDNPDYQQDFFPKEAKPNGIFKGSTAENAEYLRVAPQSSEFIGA
Chain of PDGFR (P09619 whole entry): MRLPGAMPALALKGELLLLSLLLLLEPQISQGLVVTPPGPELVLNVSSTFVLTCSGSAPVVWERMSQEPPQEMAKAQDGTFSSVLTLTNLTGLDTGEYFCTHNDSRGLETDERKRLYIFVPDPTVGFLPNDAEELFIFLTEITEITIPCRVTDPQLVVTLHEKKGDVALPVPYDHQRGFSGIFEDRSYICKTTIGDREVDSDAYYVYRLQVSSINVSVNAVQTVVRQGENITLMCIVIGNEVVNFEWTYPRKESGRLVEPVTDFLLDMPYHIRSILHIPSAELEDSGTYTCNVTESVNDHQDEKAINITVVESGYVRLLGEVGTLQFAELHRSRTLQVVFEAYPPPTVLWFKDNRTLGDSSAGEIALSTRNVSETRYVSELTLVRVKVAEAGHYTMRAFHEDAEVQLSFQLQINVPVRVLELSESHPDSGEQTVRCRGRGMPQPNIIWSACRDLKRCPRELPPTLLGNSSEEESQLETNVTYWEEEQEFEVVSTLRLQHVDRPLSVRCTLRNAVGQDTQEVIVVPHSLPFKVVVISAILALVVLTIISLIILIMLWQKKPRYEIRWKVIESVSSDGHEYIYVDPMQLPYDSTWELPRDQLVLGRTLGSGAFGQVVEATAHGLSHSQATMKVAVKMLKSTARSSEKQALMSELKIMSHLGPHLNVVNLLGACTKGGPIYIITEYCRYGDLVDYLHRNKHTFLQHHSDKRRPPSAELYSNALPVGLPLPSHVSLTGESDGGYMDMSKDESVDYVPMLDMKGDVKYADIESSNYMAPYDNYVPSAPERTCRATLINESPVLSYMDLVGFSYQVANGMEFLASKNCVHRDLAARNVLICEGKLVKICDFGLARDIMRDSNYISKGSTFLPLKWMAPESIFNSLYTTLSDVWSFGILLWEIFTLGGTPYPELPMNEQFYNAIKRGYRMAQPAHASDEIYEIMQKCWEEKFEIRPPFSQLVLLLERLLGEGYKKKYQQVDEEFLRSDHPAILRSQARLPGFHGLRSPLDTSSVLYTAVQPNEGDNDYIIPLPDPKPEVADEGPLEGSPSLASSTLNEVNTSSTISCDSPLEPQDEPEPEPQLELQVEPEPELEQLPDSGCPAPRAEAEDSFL
T2 sequence (P00533 25-1210): as the sequence (P00533 25-1210) above

Take `COCC(=O)Nc1ccc2ncnc(Nc3cccc(I)c3)c2c1` [drawing 18]: the IC50 on EGFR-TK [1] (setting [5]) was 1000 to 20000 nM; at EGFR-TK [1] (setting [6]), more than 80000 nM; at EGFR-TK [2] it was 65 nM.

For `COCC(=O)Nc1ccc2ncnc(Nc3cccc(I)c3)c2c1` [Compound 4, N-{4-[(3-iodophenyl)amino]-quinazolin-6-yl}-2-methoxyacetamide], the “nature of binding to the receptor (irreversibility)” value at EGFR-TK [1] is reported as “partial irreversible”.

Take `COCC(=O)Nc1ccc2ncnc(Nc3cc(Cl)c(Cl)cc3F)c2c1` [drawing 20]: the figures for the IC50 at EGFR-TK [1] (setting [6]) and at EGFR-TK [2] were 10000 to 50000 nM and 113 nM, respectively.

In the case of `C=CC(=O)Nc1ccc2ncnc(Nc3cc(Cl)c(Cl)cc3F)c2c1` [Compound A, N-{4-[(3,4-dichloro-6-fluorophenyl)amino]quinazoline-6-yl}acrylamide, reference compound], in series [3] (25° C.), the “ΔH^# 25° C. of reaction with reduced glutathione” value is given as 4.64 kCalmol^−1 and the “ΔS^# 25° C. of reaction with reduced glutathione” value was −61.24 Calmol^−1K^−1. For the same compound, the “reaction rate constant with reduced glutathione” value in series [3] (room temperature, THF:MeOH:H2O (1:2:1), half an equivalent GSH, 12 equivalents N,N-diisopropylethylamine) amounted to 0.0001 M/min. In addition, in series [3] (temperatures from 0° C. to 60° C.), the “activation energy Ea of reaction with reduced glutathione” value is on record as 5.24 kCalmol^−1.

As for `C=CC(=O)Nc1ccc2ncnc(Nc3cc(Cl)c(Cl)cc3F)c2c1` [drawing 14], the IC50 at EGFR-TK [1] (setting [5]) was 5 to 50 nM; at EGFR-TK [1] (setting [6]) it was 5 to 50 nM; at EGFR-TK [2] (apparent IC50, ELISA, 5 μM ATP/5 mM MnCl2, average of four dose-response curves) it was 0.037 nM.

`O=C(CCl)Nc1ccc2ncnc(Nc3cccc(I)c3)c2c1` [Compound 3, N-{4-[(3-iodophenyl)amino]-quinazolin-6-yl}-2-chloroacetamide] displayed a melting point of more than 300 °C.

In turn, `COCC(=O)Nc1ccc2ncnc(Nc3cc(Cl)c(Cl)cc3F)c2c1` [Compound 6, N-{4-[(4,5-Dichloro-2-fluoro-phenyl)amino]-quinazolin-6-yl}-2-methoxyacetamide] gave a melting point of 204 to 206 °C. At EGFR, this compound came in with a half-inhibitory concentration (IC50) of more than 250 nM. The “nature of binding to the receptor (irreversibility)” value at EGFR-TK [1] is “partial irreversible”. Also, the IC50 against PDGFR is more than 1000 nM. Also, the “change in the reaction rate with GSH with temperature” value in series [4] was “no change in the reaction rate; also recorded: could not be detected”.

`O=C(CCl)Nc1ccc2ncnc(Nc3cccc(Br)c3)c2c1` [Compound 1, N-{4-[(3-bromophenyl)amino]-quinazolin-6-yl}-2-chloroacetamide]: the melting point was more than 300 °C.

For `O=C(CCl)Nc1ccc2ncnc(Nc3cc(Cl)c(Cl)cc3F)c2c1` [drawing 19], the IC50 against EGFR-TK [1] (setting [5]) was 1 to 20 nM; at EGFR-TK [1] (setting [6]), 1 to 20 nM; on EGFR-TK [2], 5.55 nM.

`COCC(=O)Nc1ccc2ncnc(Nc3cccc(Br)c3)c2c1` [Compound 2, N-{4-[(3-bromophenyl)amino]-quinazolin-6-yl}-2-methoxyacetamide] registered a melting point of 190 to 191 °C.

The values are drawn from patent US20060025430A1, “Novel irreversible inhibitors of epidermal growth factor receptor tyrosine kinase and uses thereof for therapy and diagnosis” (priority 2003, published 2006).
